Starred links: 1 amine or outer side, 2 acyl side, 3 side chain; linkers in the order of their positions; H or OH if unused. Positions of bridges follow the written chain, without caps; N, C: chain ends. Non-standard residues stand in square brackets, D forms with d. Residues, ends and D or L forms follow the SMILES beside them. *: point of attachment. hPhe(3-Cl-4-CF3) = N[C@@H](CCc1ccc(C(F)(F)F)c(Cl)c1)C(=O)O; hPhe(3-F,4-CF3) = N[C@@H](CCc1ccc(C(F)(F)F)c(F)c1)C(=O)O; NMePhe(2-CF3) = CN[C@@H](Cc1ccccc1C(F)(F)F)C(=O)O; NMeAla(4-thiazolyl) = CN[C@@H](Cc1cscn1)C(=O)O; Thiomorpholino(1,1-dioxo) = O=S1(=O)CCN(*)CC1; NMePhe(4-Cl) = CN[C@@H](Cc1ccc(Cl)cc1)C(=O)O; X4 = O=C([C@H](Cc1cc(F)cc(Cl)c1)N[*:1])[*:2]; NMePhe(4-Me) = CN[C@@H](Cc1ccc(C)cc1)C(=O)O; X54 = O=C([C@H](Cc1cccc(Br)c1F)N[*:1])[*:2]; NMePhe(4-F) = CN[C@@H](Cc1ccc(F)cc1)C(=O)O; NMeGly(cPent) = CN[C@H](C(=O)O)C1CCCC1; Phe(3-I) = N[C@@H](Cc1cccc(I)c1)C(=O)O; NMe3Pal = CN[C@@H](Cc1cccnc1)C(=O)O; NMeY = CN[C@@H](Cc1ccc(O)cc1)C(=O)O; NMeCha = CN[C@@H](CC1CCCCC1)C(=O)O; Azetidine(3,3-F2) = FC1(F)CN(*)C1; NMeAoc(2) = CCCCCC[C@H](NC)C(=O)O; Gly(N-(CH2)2OEt) = CCOCCNCC(=O)O; NMeChg = CN[C@H](C(=O)O)C1CCCCC1; NMeF = CN[C@@H](Cc1ccccc1)C(=O)O; NMeI = CC[C@H](C)[C@H](NC)C(=O)O; NMeD = CN[C@@H](CC(=O)O)C(=O)O; NMeL = CN[C@@H](CC(C)C)C(=O)O; NMeV = CN[C@H](C(=O)O)C(C)C; d(β3hA) = C[C@@H](N)CC(=O)O; NMeAbu = CC[C@H](NC)C(=O)O; dIva = CC[C@@](C)(N)C(=O)O; NMeS = CN[C@@H](CO)C(=O)O; NMeA = CN[C@@H](C)C(=O)O; NMeAib = CNC(C)(C)C(=O)O; Nle = CCCC[C@H](N)C(=O)O; Piperidide = C1CCN(*)CC1; Pyrrolidide = C1CCN(*)C1; Ac5c = NC1(C(=O)O)CCCC1; Aze = O=C(O)[C@@H]1CCN1; Nva = CCC[C@H](N)C(=O)O; Abu = CC[C@H](N)C(=O)O; Sar = CNCC(=O)O; Propyl = CCC*
These molecules were tested against T1, Kras and SOS1 (biotin-tagged human Kras loaded with GDP, His-tagged human SOS1) (Homo sapiens, UniProt P01116, G12D) (assay: Protein-protein interaction inhibition between Kras and SOS1 (KrasGl2D-SOS PPI) using AlphaScreen). Conditions: AlphaScreen; biotin-tagged human Kras loaded with GDP, His-tagged human SOS1; read-out: KRAS G12D-SOS PPI IC50.
T1 construct: made in house; host or cells: E. coli (stated for Kras only)
T1 sequence (P01116 1-188 isoform P01116-2 G12D): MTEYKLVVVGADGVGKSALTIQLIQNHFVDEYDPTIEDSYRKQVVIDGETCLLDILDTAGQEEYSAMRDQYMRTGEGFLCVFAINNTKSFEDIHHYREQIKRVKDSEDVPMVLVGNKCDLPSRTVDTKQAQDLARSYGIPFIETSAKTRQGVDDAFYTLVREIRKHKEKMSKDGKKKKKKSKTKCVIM
Assay type: binding
Method in brief: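 Binding between SOS1 and Kras is detected as bead-proximity luminescence: illuminate Ni-conjugated donors (680 nm), collect 520-620 nm emission from streptavidin-conjugated acceptors; Kras carries biotin and GDP loaded after purification, SOS1 carries a His tag.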

SMILES | IC50
CCCOC[C@@H]1NC(=O)[C@H](CC(=O)N2CC(F)(F)C2)N(C)C(=O)[C@H](CCc2ccc(C(F)(F)F)c(Cl)c2)NC(=O)CN(C)C(=O)[C@H](CC2CCCCC2)N(C)C(=O)[C@@H]2CCN2C(=O)[C@H](C)N(C)C(=O)[C@H]([C@@H](C)CC)NC(=O)[C@H](CC(C)C)N(C)C(=O)C[C@@H](C(=O)N(C)C)N(C)C(=O)[C@H](C2CCCC2)N(C)C1=O [Compound 41] ([NMeL]I[NMeA][Aze][NMeCha][Sar][hPhe(3-Cl-4-CF3)][NMeD](Azetidine(3,3-F2))S(Propyl)[NMeGly(cPent)][NMeD]-NMe2; lactam N-11) | 11 nM
CC[C@H](C)[C@@H]1NC(=O)[C@H](CC(C)C)N(C)C(=O)C[C@@H](C)NC(=O)[C@H](C(C)C)N(C)C(=O)C2(CCCC2)NC(=O)[C@@H]2CCCN2C(=O)[C@H](CCc2ccc(C(F)(F)F)c(F)c2)NC(=O)CN(C)C(=O)[C@H](CC2CCCCC2)N(C)C(=O)CN(C)C(=O)CN(C)C1=O [Compound 1534] (cyclo([Ac5c][NMeV][d(β3hA)][NMeL]I[Sar][Sar][NMeCha][Sar][hPhe(3-F,4-CF3)]P)) | 62 nM
CC[C@H](C)[C@@H]1NC(=O)[C@H](C)N(C)C(=O)C[C@@H](C)NC(=O)[C@H](C(C)C)N(C)C(=O)[C@H](Cc2ccccc2)N(C)C(=O)[C@H](CC(C)C)N(C)C(=O)[C@H](CCc2ccc(C(F)(F)F)c(Cl)c2)NC(=O)CN(C)C(=O)[C@H](Cc2ccc(Cl)cc2)N(C)C(=O)[C@@H]2CCN2C(=O)CN(C)C1=O [Compound 994] (cyclo([Aze][NMePhe(4-Cl)][Sar][hPhe(3-Cl-4-CF3)][NMeL][NMeF][NMeV][d(β3hA)][NMeA]I[Sar])) | 11 nM
CCCCCC[C@H]1C(=O)N[C@@H]([C@@H](C)CC)C(=O)N(C)CC(=O)N2CC[C@H]2C(=O)N(C)[C@@H](Cc2ccc(OC)cc2)C(=O)N(C)CC(=O)N[C@@H](Cc2cccc(I)c2)C(=O)N[C@@H](CCCC)C(=O)N(C)C(C)(C)C(=O)N[C@@H](CC(C)C)C(=O)N(C)[C@H](C(=O)N2CCCCC2)CC(=O)N1C [Compound 1417] ([NMeAoc(2)]I[Sar][Aze][NMeY](Me)[Sar][Phe(3-I)][Nle][NMeAib]L[NMeD]-Piperidide; lactam N-11) | 29 nM
CC[C@H](C)[C@@H]1NC(=O)[C@H](CC(C)C)N(C)C(=O)C[C@@H](C(=O)N(C)C)N(C)C(=O)[C@H]([C@@H](C)CC)N(C)C(=O)[C@H](C)NC(=O)[C@H](Cc2cscn2)N(C)C(=O)[C@H](CCc2ccc(C(F)(F)F)c(Cl)c2)NC(=O)CN(C)C(=O)[C@H](Cc2ccc(C)cc2)N(C)C(=O)[C@@H]2CCN2C(=O)[C@H](C)N(C)C1=O [Compound 856] ([NMeL]I[NMeA][Aze][NMePhe(4-Me)][Sar][hPhe(3-Cl-4-CF3)][NMeAla(4-thiazolyl)]A[NMeI][NMeD]-NMe2; lactam N-11) | 14 nM
CC[C@H](C)[C@@H]1NC(=O)[C@H](C)N(C)C(=O)C[C@@H](C(=O)N2CCCCC2)N(C)C(=O)[C@H](C2CCCCC2)N(C)C(=O)C2(CCCC2)NC(=O)[C@H](Cc2cccnc2)N(C)C(=O)[C@H](CCc2ccc(C(F)(F)F)c(Cl)c2)NC(=O)CN(C)C(=O)[C@H](CC2CCCCC2)N(C)C(=O)[C@@H]2CCCN2C(=O)CN(C)C1=O [Compound 433] ([NMeA]I[Sar]P[NMeCha][Sar][hPhe(3-Cl-4-CF3)][NMe3Pal][Ac5c][NMeChg][NMeD]-Piperidide; lactam N-11) | 2.2 nM
CC[C@H](C)[C@@H]1NC(=O)[C@H](CC(C)C)N(C)C(=O)C[C@@H](C)NC(=O)[C@H](C(C)C)N(C)C(=O)C2(CCCC2)NC(=O)[C@@H]2CCCN2C(=O)[C@H](CCc2ccc(C(F)(F)F)c(Cl)c2)NC(=O)CN(C)C(=O)[C@H](Cc2ccccc2C(F)(F)F)N(C)C(=O)CN(C)C(=O)CN(C)C1=O [Compound 1613] (cyclo([Ac5c][NMeV][d(β3hA)][NMeL]I[Sar][Sar][NMePhe(2-CF3)][Sar][hPhe(3-Cl-4-CF3)]P)) | 110 nM
CCCC[C@@H]1NC(=O)[C@H](Cc2cccc(Br)c2F)NC(=O)CN(C)C(=O)[C@H](Cc2ccc(OC)cc2)N(C)C(=O)[C@@H]2CCN2C(=O)[C@H](C)N(C)C(=O)[C@H]([C@@H](C)CC)NC(=O)[C@H](CC)N(C)C(=O)C[C@@H](C(=O)N2CCCCC2)N(C)C(=O)[C@H](CC(C)C)NC(=O)C(C)(C)N(C)C1=O [Compound 1304] ([NMeAbu]I[NMeA][Aze][NMeY](Me)[Sar][X54][Nle][NMeAib]L[NMeD]-Piperidide; lactam N-11) | 85 nM
CC[C@H](C)[C@@H]1NC(=O)[C@H](CC(C)C)N(C)C(=O)C[C@@H](C(=O)N(C)C)N(C)C(=O)[C@H](C2CCCC2)N(C)C(=O)[C@H](C(C)C)NC(=O)[C@@H](C)NC(=O)[C@H](CCc2ccc(C(F)(F)F)c(Cl)c2)NC(=O)CN(C)C(=O)[C@H](CC2CCCCC2)N(C)C(=O)[C@@H]2CCN2C(=O)[C@H](C)N(C)C1=O [Compound 24] ([NMeL]I[NMeA][Aze][NMeCha][Sar][hPhe(3-Cl-4-CF3)][dA]V[NMeGly(cPent)][NMeD]-NMe2; lactam N-11) | 25 nM
CCCC[C@@H]1NC(=O)[C@H](Cc2cc(F)cc(Cl)c2)NC(=O)CN(C)C(=O)[C@H](Cc2ccc(Cl)cc2)N(C)C(=O)CN(C)C(=O)CN(C)C(=O)[C@H]([C@@H](C)CC)NC(=O)[C@H](CC(C)C)N(C)C(=O)C[C@@H](C(=O)N2CCCCC2)N(C)C(=O)[C@H](CC(C)C)NC(=O)C(C)(C)N(C)C1=O [Compound 202] ([NMeL]I[Sar][Sar][NMePhe(4-Cl)][Sar][X4][Nle][NMeAib]L[NMeD]-Piperidide; lactam N-11) | 39 nM
CC[C@H](C)[C@@H]1NC(=O)[C@H](CC(C)C)N(C)C(=O)C[C@@H](C(=O)N2CCS(=O)(=O)CC2)N(C)C(=O)[C@H](C2CCCCC2)N(C)C(=O)C2(CCCC2)NC(=O)[C@@H]2CCCN2C(=O)[C@H](CCc2ccc(C(F)(F)F)c(Cl)c2)NC(=O)CN(C)C(=O)[C@H](CC2CCCCC2)N(C)C(=O)CN(C)C(=O)CN(C)C1=O [Compound 1263] ([NMeL]I[Sar][Sar][NMeCha][Sar][hPhe(3-Cl-4-CF3)]P[Ac5c][NMeChg][NMeD]-{Thiomorpholino(1,1-dioxo)}; lactam N-11) | 2.7 nM
CC[C@@H]1NC(=O)[C@H]([C@@H](C)CC)NC(=O)[C@H](CC(C)C)N(C)C(=O)C[C@@H](C)NC(=O)[C@H](C(C)C)N(C)C(=O)C2(CCCC2)NC(=O)[C@@H]2CCCN2C(=O)[C@H](CCc2ccc(C(F)(F)F)c(Cl)c2)NC(=O)CN(C)C(=O)[C@H](CC2CCCCC2)N(C)C(=O)CN(C)C1=O [Compound 1459] (cyclo([Abu][Sar][NMeCha][Sar][hPhe(3-Cl-4-CF3)]P[Ac5c][NMeV][d(β3hA)][NMeL]I)) | 290 nM
CC[C@H](C)[C@@H]1NC(=O)[C@H](C)N(C)C(=O)C[C@@H](C)NC(=O)[C@H](C(C)C)N(C)C(=O)C2(CCCC2)NC(=O)[C@@H]2CCCN2C(=O)[C@H](CCc2ccc(C(F)(F)F)c(Cl)c2)NC(=O)[C@H]2CCCN2C(=O)[C@H](Cc2ccc(F)cc2)N(C)C(=O)[C@@H]2CCCN2C(=O)CN(C)C1=O [Compound 1667] (cyclo([Ac5c][NMeV][d(β3hA)][NMeA]I[Sar]P[NMePhe(4-F)][dP][hPhe(3-Cl-4-CF3)]P)) | 13 nM
CCOCCN1CC(=O)N(C)[C@@H](CC2CCCCC2)C(=O)N(C)CC(=O)N[C@@H](CCc2ccc(C(F)(F)F)c(Cl)c2)C(=O)N2CCC[C@H]2C(=O)NC2(CCCC2)C(=O)N(C)[C@@H](C(C)C)C(=O)N[C@H](C)CC(=O)N(C)[C@@H](CC(C)C)C(=O)N[C@@H]([C@@H](C)CC)C(=O)N(C)CC1=O [Compound 864] (cyclo([Ac5c][NMeV][d(β3hA)][NMeL]I[Sar][Gly(N-(CH2)2OEt)][NMeCha][Sar][hPhe(3-Cl-4-CF3)]P)) | 73 nM
CC[C@H](C)[C@@H]1NC(=O)[C@H](CC(C)C)N(C)C(=O)C[C@@H](C)NC(=O)[C@H](C(C)C)N(C)C(=O)[C@@](C)(CC)NC(=O)[C@@H]2CCCN2C(=O)[C@H](CCc2ccc(C(F)(F)F)c(Cl)c2)NC(=O)CN(C)C(=O)[C@H](CC2CCCCC2)N(C)C(=O)CN(C)C(=O)CN(C)C1=O [Compound 275] (cyclo(I[Sar][Sar][NMeCha][Sar][hPhe(3-Cl-4-CF3)]P[dIva][NMeV][d(β3hA)][NMeL])) | 46 nM
CC[C@H](C)[C@@H]1NC(=O)[C@H](CC(C)C)N(C)C(=O)C[C@@H](C)NC(=O)[C@H](C2CCCCC2)N(C)C(=O)C2(CCCC2)NC(=O)[C@@H]2CCCN2C(=O)[C@H](CCc2ccc(C(F)(F)F)c(Cl)c2)NC(=O)CN(C)C(=O)[C@H](CC2CCCCC2)N(C)C(=O)CN(C)C(=O)CN(C)C1=O [Compound 593] (cyclo([Ac5c][NMeChg][d(β3hA)][NMeL]I[Sar][Sar][NMeCha][Sar][hPhe(3-Cl-4-CF3)]P)) | 34 nM
CC[C@H](C)[C@@H]1NC(=O)[C@H](CC(C)C)N(C)C(=O)C[C@@H](C(=O)N2CCCCC2)N(C)C(=O)[C@H](C2CCCCC2)N(C)C(=O)C2(CCCC2)NC(=O)[C@@H]2CCCN2C(=O)[C@H](CCc2ccc(C(F)(F)F)c(Cl)c2)NC(=O)CN(C)C(=O)[C@H](COC)N(C)C(=O)CN(C)C(=O)CN(C)C1=O [Compound 623] ([NMeL]I[Sar][Sar][NMeS](Me)[Sar][hPhe(3-Cl-4-CF3)]P[Ac5c][NMeChg][NMeD]-Piperidide; lactam N-11) | 1.8 nM
CCCC[C@@H]1NC(=O)[C@H](Cc2cccc(I)c2)NC(=O)CN(C)C(=O)[C@H](Cc2ccc(Cl)cc2)N(C)C(=O)CN(C)C(=O)CN(C)C(=O)[C@H]([C@@H](C)CC)NC(=O)[C@H](CC(C)C)N(C)C(=O)C[C@@H](C(=O)N2CCCC2)N(C)C(=O)[C@H](CCC)NC(=O)C(C)(C)N(C)C1=O [Compound 1410] ([NMeL]I[Sar][Sar][NMePhe(4-Cl)][Sar][Phe(3-I)][Nle][NMeAib][Nva][NMeD]-Pyrrolidide; lactam N-11) | 270 nM
